Target: T1, MAGL (Homo sapiens, UniProt Q99685)
T1 sequence (Q99685 1-303): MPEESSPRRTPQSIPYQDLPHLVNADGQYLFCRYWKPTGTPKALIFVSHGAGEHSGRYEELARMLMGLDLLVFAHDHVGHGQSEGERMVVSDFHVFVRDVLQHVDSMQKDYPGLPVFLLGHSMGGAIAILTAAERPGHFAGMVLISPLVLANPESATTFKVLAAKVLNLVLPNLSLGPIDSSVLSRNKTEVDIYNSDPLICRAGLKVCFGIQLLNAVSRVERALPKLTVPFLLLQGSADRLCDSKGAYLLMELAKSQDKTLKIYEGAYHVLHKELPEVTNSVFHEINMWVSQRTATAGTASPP
Assay: In vitro competitive activity-based protein profiling, PC3 human cell membrane proteomes
Type: biochemical
Set-up: endogenous in cells; host or cells: PC3 human cells (membrane proteome)
Settings: human PC3 membrane proteome
Experimental: PC3 human cell membrane proteomes (50 μL, 2.0 mg/mL total protein concentration) were preincubated with varying concentrations of inhibitors at 37° C. After 30 min, the ABPP probe JW912-Bodipy (1.0 μL, 50 μM in DMSO) was added and the mixture was incubated for 30 min at room temperature. Reactions were quenched with SDS loading buffer (15 μL-4×) and run on SDS-PAGE. Following gel imaging, serine hydrolase activity was determined by measuring fluorescent intensity of gel bands corresponding to MAGL using ImageJ 1.43u software. Intensities were converted to percent enzyme activity by normalizing to DMSO controls. IC50 values were determined by fitting percent enzyme activities to a non-linear regression, 4-parameter, sigmoidal dose response function in Prism GraphPad.

| Structure (SMILES) | IC50 [µM] |
| --- | --- |
| CP(C)(=O)c1ccc(NC(=O)C2CC23CCN(C(=O)OC(C(F)(F)F)C(F)(F)F)CC3)cn1 (single isomer, unassigned) [Example 21, 1,1,1,3,3,3-Hexafluoropropan-2-yl (R or S)-1-((6-(dimethylphosphoryl)pyridin-3-yl)carbamoyl)-6-azaspiro[2.5]octane-6-carboxylate] | 0.317 |
| O=C(Nc1ccncc1)C1CC12CCN(C(=O)OC(C(F)(F)F)C(F)(F)F)CC2 (single isomer, unassigned) [Example 23, 1,1,1,3,3,3-Hexafluoropropan-2-yl (R or S)-1-(pyridin-4-ylcarbamoyl)-6-azaspiro[2.5]octane-6-carboxylate] | 0.2 |
| O=C(Nc1ccc(-n2cccn2)nc1)C1CC12CCN(C(=O)OC(C(F)(F)F)C(F)(F)F)CC2 (single isomer, unassigned) [Example 30, 1,1,1,3,3,3-Hexafluoropropan-2-yl (R or S)-1-((6-(1H-pyrazol-1-yl)pyridin-3-yl)carbamoyl)-6-azaspiro[2.5]octane-6-carboxylate] | 0.39 |
| CNC(=O)c1ccc(NC(=O)C2CC23CCN(C(=O)OC(C(F)(F)F)C(F)(F)F)CC3)cn1 (single isomer, unassigned) [Example 32, 1,1,1,3,3,3-Hexafluoropropan-2-yl (R or S)-1-((6-(methylcarbamoyl)pyridin-3-yl)carbamoyl)-6-azaspiro[2.5]octane-6-carboxylate] | 0.25 |
| CNC(=O)c1ccc(NC(=O)C2CC23CCN(C(=O)OC(C(F)(F)F)C(F)(F)F)CC3)cn1 (single isomer, unassigned) [Example 33, 1,1,1,3,3,3-Hexafluoropropan-2-yl (R or S)-1-((6-(methylcarbamoyl)pyridin-3-yl)carbamoyl)-6-azaspiro[2.5]octane-6-carboxylate] | 0.0022 |
| COc1ccc(NC(=O)[C@@H]2CC23CCN(C(=O)OC(C(F)(F)F)C(F)(F)F)CC3)cn1 (single isomer, unassigned) [Example 36] | 0.0051 |
| COc1ccc(NC(=O)[C@H]2CC23CCN(C(=O)OC(C(F)(F)F)C(F)(F)F)CC3)cn1 (single isomer, unassigned) [Example 37] | 0.0011 |
| Cc1cnc(NC(=O)C2CC23CCN(C(=O)OC(C(F)(F)F)C(F)(F)F)CC3)cn1 (single isomer, unassigned) [Example 111, 1,1,1,3,3,3-hexafluoropropan-2-yl (R or S)-1-((5-methylpyrazin-2-yl)carbamoyl)-6-azaspiro[2.5]octane-6-carboxylate] | 0.074 |
| Cn1ccc(NC(=O)C2CC23CCN(C(=O)OC(C(F)(F)F)C(F)(F)F)CC3)n1 (single isomer, unassigned) [Example 126, 1,1,1,3,3,3-hexafluoropropan-2-yl (R or S)-1-((1-methyl-1H-pyrazol-3-yl)carbamoyl)-6-azaspiro[2.5]octane-6-carboxylate] | 0.23 |
| CC1(NC(=O)C2CC23CCN(C(=O)OC(C(F)(F)F)C(F)(F)F)CC3)CCOCC1 (single isomer, unassigned) [Example 133, 1,1,1,3,3,3-hexafluoropropan-2-yl (R or S)-1-((4-methyltetrahydro-2H-pyran-4-yl)carbamoyl)-6-azaspiro[2.5]octane-6-carboxylate] | 1.6 |
| Cn1nccc1NC(=O)C1CC12CCN(C(=O)OC(C(F)(F)F)C(F)(F)F)CC2 (single isomer, unassigned) [Example 136, 1,1,1,3,3,3-hexafluoropropan-2-yl (R or S)-1-((1-methyl-1H-pyrazol-5-yl)carbamoyl)-6-azaspiro[2.5]octane-6-carboxylate] | 0.34 |
| O=C(Nc1nccs1)C1CC12CCN(C(=O)OC(C(F)(F)F)C(F)(F)F)CC2 (single isomer, unassigned) [Example 139, 1,1,1,3,3,3-hexafluoropropan-2-yl (R or S)-1-(thiazol-2-ylcarbamoyl)-6-azaspiro[2.5]octane-6-carboxylate] | 0.11 |
| O=C(Nc1ccccc1)[C@H]1CC12CCN(C(=O)OC(C(F)(F)F)C(F)(F)F)CC2 (single isomer, unassigned) [Example 141] | 0.00091 |
| O=C(Nc1ccccc1)[C@@H]1CC12CCN(C(=O)OC(C(F)(F)F)C(F)(F)F)CC2 (single isomer, unassigned) [Example 142] | 0.13 |

Continued, values first:

| IC50 [µM] | Structure (SMILES) |
| --- | --- |
| 0.013 | O=C(Nc1cnoc1)[C@H]1CC12CCN(C(=O)OC(C(F)(F)F)C(F)(F)F)CC2 (single isomer, unassigned) [Example 14] |
| 1 | O=C(Nc1cnoc1)[C@@H]1CC12CCN(C(=O)OC(C(F)(F)F)C(F)(F)F)CC2 (single isomer, unassigned) [Example 15] |
| 0.016 | O=C(NC(=O)C1CC12CCN(C(=O)OC(C(F)(F)F)C(F)(F)F)CC2)C1CCOCC1 (single isomer, unassigned) [Example 26, 1,1,1,3,3,3-Hexafluoropropan-2-yl (R or S)-1-((tetrahydro-2H-pyran-4-carbonyl)carbamoyl)-6-azaspiro[2.5]octane-6-carboxylate] |
| 0.056 | O=C(NC(=O)C1CC12CCN(C(=O)OC(C(F)(F)F)C(F)(F)F)CC2)C1CCOCC1 (single isomer, unassigned) [Example 27, 1,1,1,3,3,3-Hexafluoropropan-2-yl (R or S)-1-((tetrahydro-2H-pyran-4-carbonyl)carbamoyl)-6-azaspiro[2.5]octane-6-carboxylate] |
| 0.15 | Cc1ncc(NC(=O)C2CC23CCN(C(=O)OC(C(F)(F)F)C(F)(F)F)CC3)cn1 (single isomer, unassigned) [Example 102, 1,1,1,3,3,3-hexafluoropropan-2-yl (R or S)-1-((2-methylpyrimidin-5-yl)carbamoyl)-6-azaspiro[2.5]octane-6-carboxylate] |
| 0.0033 | Cc1ncc(NC(=O)C2CC23CCN(C(=O)OC(C(F)(F)F)C(F)(F)F)CC3)cn1 (single isomer, unassigned) [Example 103, 1,1,1,3,3,3-hexafluoropropan-2-yl (R or S)-1-((2-methylpyrimidin-5-yl)carbamoyl)-6-azaspiro[2.5]octane-6-carboxylate] |
| 0.1 | Cc1ccc(NC(=O)[C@@H]2CC23CCN(C(=O)OC(C(F)(F)F)C(F)(F)F)CC3)nn1 (single isomer, unassigned) [Example 105] |
| 0.001 | Cc1ccc(NC(=O)[C@H]2CC23CCN(C(=O)OC(C(F)(F)F)C(F)(F)F)CC3)nn1 (single isomer, unassigned) [Example 106] |
| 0.013 | O=C(Nc1ccnnc1)C1CC12CCN(C(=O)OC(C(F)(F)F)C(F)(F)F)CC2 (single isomer, unassigned) [Example 108, 1,1,1,3,3,3-hexafluoropropan-2-yl (R or S)-1-(pyridazin-4-ylcarbamoyl)-6-azaspiro[2.5]octane-6-carboxylate] |
| 0.57 | O=C(Nc1ccnnc1)C1CC12CCN(C(=O)OC(C(F)(F)F)C(F)(F)F)CC2 (single isomer, unassigned) [Example 109, 1,1,1,3,3,3-hexafluoropropan-2-yl (R or S)-1-(pyridazin-4-ylcarbamoyl)-6-azaspiro[2.5]octane-6-carboxylate] |
| 2.6 | CN1CCC(NC(=O)C2CC23CCN(C(=O)OC(C(F)(F)F)C(F)(F)F)CC3)CC1 (single isomer, unassigned) [Example 114, 1,1,1,3,3,3-hexafluoropropan-2-yl (R or S)-1-((1-methylpiperidin-4-yl)carbamoyl)-6-azaspiro[2.5]octane-6-carboxylate] |
| 0.56 | CN1CCC(NC(=O)C2CC23CCN(C(=O)OC(C(F)(F)F)C(F)(F)F)CC3)CC1 (single isomer, unassigned) [Example 115, 1,1,1,3,3,3-hexafluoropropan-2-yl (R or S)-1-((1-methylpiperidin-4-yl)carbamoyl)-6-azaspiro[2.5]octane-6-carboxylate] |
| 0.29 | O=C(NCC1CCOCC1)[C@@H]1CC12CCN(C(=O)OC(C(F)(F)F)C(F)(F)F)CC2 (single isomer, unassigned) [Example 118] |
| 0.3 | O=C(OC(C(F)(F)F)C(F)(F)F)N1CCC2(CC1)CC2C(=O)N1CCOCC1 (single isomer, unassigned) [Example 120, 1,1,1,3,3,3-hexafluoropropan-2-yl (R or S)-1-(morpholine-4-carbonyl)-6-azaspiro[2.5]octane-6-carboxylate] |
| 0.42 | O=C(OC(C(F)(F)F)C(F)(F)F)N1CCC2(CC1)CC2C(=O)N1CCOCC1 (single isomer, unassigned) [Example 121, 1,1,1,3,3,3-hexafluoropropan-2-yl (R or S)-1-(morpholine-4-carbonyl)-6-azaspiro[2.5]octane-6-carboxylate] |
| 0.16 | N#CC1CCN(C(=O)C2CC23CCN(C(=O)OC(C(F)(F)F)C(F)(F)F)CC3)CC1 (single isomer, unassigned) [Example 123, 1,1,1,3,3,3-hexafluoropropan-2-yl (R or S)-1-(4-cyanopiperidine-1-carbonyl)-6-azaspiro[2.5]octane-6-carboxylate] |
| 0.67 | N#CC1CCN(C(=O)C2CC23CCN(C(=O)OC(C(F)(F)F)C(F)(F)F)CC3)CC1 (single isomer, unassigned) [Example 124, 1,1,1,3,3,3-hexafluoropropan-2-yl (R or S)-1-(4-cyanopiperidine-1-carbonyl)-6-azaspiro[2.5]octane-6-carboxylate] |

Source: US20240018120A1, “MAGL INHIBITORS” (H. LUNDBECK A/S, priority 2020, published 2024)
